{"source": "patent US10780090B2", "about": "“Heteroaryl compounds useful as inhibitors of SUMO activating enzyme” (Millennium Pharmaceuticals, Inc., priority 2014, dated 2020)", "molecular_target": "recombinant human SAE enzyme (Homo sapiens (Human), UniProt Q9UBT2)", "sequence (Q9UBT2 whole entry)": "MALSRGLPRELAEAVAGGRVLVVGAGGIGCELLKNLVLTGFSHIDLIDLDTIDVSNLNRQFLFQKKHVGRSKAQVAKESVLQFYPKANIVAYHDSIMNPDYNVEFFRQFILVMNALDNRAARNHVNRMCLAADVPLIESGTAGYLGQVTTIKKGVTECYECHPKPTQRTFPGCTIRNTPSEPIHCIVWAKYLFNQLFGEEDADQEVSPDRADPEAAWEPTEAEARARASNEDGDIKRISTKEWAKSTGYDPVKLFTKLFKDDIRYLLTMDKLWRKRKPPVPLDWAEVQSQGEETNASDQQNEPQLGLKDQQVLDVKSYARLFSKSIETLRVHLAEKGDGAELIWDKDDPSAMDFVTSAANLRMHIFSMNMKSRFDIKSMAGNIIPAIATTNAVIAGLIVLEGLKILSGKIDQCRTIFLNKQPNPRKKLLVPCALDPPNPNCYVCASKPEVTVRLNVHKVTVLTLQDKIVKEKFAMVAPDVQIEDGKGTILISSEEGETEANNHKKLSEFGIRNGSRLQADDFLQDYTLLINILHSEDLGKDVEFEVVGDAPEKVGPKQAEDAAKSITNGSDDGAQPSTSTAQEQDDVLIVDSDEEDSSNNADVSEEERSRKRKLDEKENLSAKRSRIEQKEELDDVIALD", "sequence (Q9UBE0 whole entry partner)": "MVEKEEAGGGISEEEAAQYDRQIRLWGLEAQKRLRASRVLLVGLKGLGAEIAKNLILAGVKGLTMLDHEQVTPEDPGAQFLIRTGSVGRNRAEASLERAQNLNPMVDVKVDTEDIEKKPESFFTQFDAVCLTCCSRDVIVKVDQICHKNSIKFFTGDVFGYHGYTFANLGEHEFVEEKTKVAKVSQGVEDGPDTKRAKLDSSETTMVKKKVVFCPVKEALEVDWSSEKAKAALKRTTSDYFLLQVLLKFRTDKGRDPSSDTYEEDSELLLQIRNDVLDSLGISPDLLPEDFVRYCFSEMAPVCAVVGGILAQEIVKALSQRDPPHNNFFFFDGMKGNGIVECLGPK", "assay": "SAE HTRF enzyme assay", "format": "biochemical", "conditions": "for inhibition at 0.111 µM: Concentration 0.111 μM, read-out: Percent Inhibition; for IC50: class symbols A/B/C", "procedure,_shortened": "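This HTRF format monitors Sumo-Flag–Ubc9-GST thioester formation catalysed by 0.11 nM human SAE with 0.5 μM ATP over 105 min at 24° C. Inhibition is expressed at a single concentration or as IC50.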"}
{"smiles": "NS(=O)(=O)OC[C@H]1C[C@@H](Nc2ncncc2C(=O)c2cc(Cn3ccc4ccncc43)cs2)C[C@@H]1O", "note": "[I-186, {(1R,2S,4R)-2-hydroxy-4-[(5-{[4-(1H-pyrrolo[2,3-c]pyridin-1-ylmethyl)-2-thienyl]carbonyl}pyrimidin-4-yl)amino]cyclopentyl}methyl sulfamate]", "values": [{"measurement": "inhibition at 0.111 µM", "result": 83, "unit": "%"}, {"measurement": "IC50", "result": "10 to 100", "unit": "nM"}]}
{"smiles": "NS(=O)(=O)OC[C@H]1C[C@@H](Nc2ncncc2C(=O)c2cc(CN3Cc4ccccc4C3)cs2)C[C@@H]1O", "note": "[I-187, {(1R,2S,4R)-4-[(5-{[4-(1,3-dihydro-2H-isoindol-2-ylmethyl)-2-thienyl]carbonyl}pyrimidin-4-yl)amino]-2-hydroxycyclopentyl}methyl sulfamate]", "values": [{"measurement": "inhibition at 0.111 µM", "result": 76, "unit": "%"}, {"measurement": "IC50", "result": "10 to 100", "unit": "nM"}]}
{"smiles": "NS(=O)(=O)OC[C@H]1C[C@@H](Nc2ncncc2C(=O)c2cc(COc3ccccc3C(F)(F)F)cs2)C[C@@H]1O", "note": "[I-188, [(1R,2S,4R)-2-hydroxy-4-({5-[(4-{[2-(trifluoromethyl)phenoxy]methyl}-2-thienyl)carbonyl]pyrimidin-4-yl}amino)cyclopentyl]methyl sulfamate]", "values": [{"measurement": "inhibition at 0.111 µM", "result": 79, "unit": "%"}, {"measurement": "IC50", "result": "10 to 100", "unit": "nM"}]}
{"smiles": "NS(=O)(=O)OC[C@H]1C[C@@H](Nc2ncncc2C(=O)c2cc(Sc3cccc(C(F)(F)F)c3)c(Cl)s2)C[C@@H]1O", "note": "[I-189, [(1R,2S,4R)-4-({5-[(5-chloro-4-{[3-(trifluoromethyl)phenyl]sulfanyl}-2-thienyl)carbonyl]pyrimidin-4-yl}amino)-2-hydroxycyclopentyl]methyl sulfamate]", "values": [{"measurement": "inhibition at 0.111 µM", "result": 78, "unit": "%"}, {"measurement": "IC50", "result": "10 to 100", "unit": "nM"}]}
{"smiles": "NS(=O)(=O)OC[C@H]1C[C@@H](Nc2ncncc2C(=O)c2cc(CN3CCn4ccnc4C3)cs2)C[C@@H]1O", "note": "[I-190, {(1R,2S,4R)-4-[(5-{[4-(5,6-dihydroimidazo[1,2-a]pyrazin-7(8H)-ylmethyl)-2-thienyl]carbonyl}pyrimidin-4-yl)amino]-2-hydroxycyclopentyl}methyl sulfamate]", "values": [{"measurement": "inhibition at 0.111 µM", "result": 77, "unit": "%"}, {"measurement": "IC50", "result": "10 to 100", "unit": "nM"}]}
{"smiles": "CC(C)c1ccccc1OCc1csc(C(=O)c2cncnc2N[C@@H]2C[C@H](COS(N)(=O)=O)[C@@H](O)C2)c1", "note": "[I-191, [(1R,2S,4R)-2-hydroxy-4-{[5-({4-[(2-isopropylphenoxy)methyl]-2-thienyl}carbonyl)pyrimidin-4-yl]amino}cyclopentyl]methyl sulfamate]", "values": [{"measurement": "inhibition at 0.111 µM", "result": 72, "unit": "%"}, {"measurement": "IC50", "result": "10 to 100", "unit": "nM"}]}
{"smiles": "NS(=O)(=O)OC[C@H]1C[C@@H](Nc2ncncc2C(=O)c2cc(Cn3cnc4ccccc43)cs2)C[C@@H]1O", "note": "[I-192, {(1R,2S,4R)-4-[(5-{[4-(1H-benzimidazol-1-ylmethyl)-2-thienyl]carbonyl}pyrimidin-4-yl)amino]-2-hydroxycyclopentyl}methyl sulfamate]", "values": [{"measurement": "inhibition at 0.111 µM", "result": 66, "unit": "%"}, {"measurement": "IC50", "result": "10 to 100", "unit": "nM"}]}
{"smiles": "NS(=O)(=O)OC[C@H]1C[C@@H](Nc2ncncc2C(=O)c2cc(CC3=CCOC3)cs2)C[C@@H]1O", "note": "[I-193, {(1R,2S,4R)-4-[(5-{[4-(2,5-dihydrofuran-3-ylmethyl)-2-thienyl]carbonyl}pyrimidin-4-yl)amino]-2-hydroxycyclopentyl}methyl sulfamate]", "values": [{"measurement": "inhibition at 0.111 µM", "result": 72, "unit": "%"}, {"measurement": "IC50", "result": "10 to 100", "unit": "nM"}]}
{"smiles": "Cc1sc(C(=O)c2cncnc2N[C@@H]2C[C@H](COS(N)(=O)=O)[C@@H](O)C2)cc1Cn1ccc(C#N)c1", "note": "[I-194, [(1R,2S,4R)-4-{[5-({4-[(3-cyano-1H-pyrrol-1-yl)methyl]-5-methyl-2-thienyl}carbonyl)pyrimidin-4-yl]amino}-2-hydroxycyclopentyl]methyl sulfamate]", "values": [{"measurement": "inhibition at 0.111 µM", "result": 66, "unit": "%"}, {"measurement": "IC50", "result": "10 to 100", "unit": "nM"}]}
{"smiles": "NS(=O)(=O)OC[C@H]1C[C@@H](Nc2ncncc2C(=O)c2cc(CC3=CCOCC3)cs2)C[C@@H]1O", "note": "[I-196, {(1R,2S,4R)-4-[(5-{[4-(3,6-dihydro-2H-pyran-4-ylmethyl)-2-thienyl]carbonyl}pyrimidin-4-yl)amino]-2-hydroxycyclopentyl}methyl sulfamate]", "values": [{"measurement": "inhibition at 0.111 µM", "result": 63, "unit": "%"}, {"measurement": "IC50", "result": "10 to 100", "unit": "nM"}]}
